# Laboratory results published in patent publication US20240368150A1 (Hoffmann-La Roche Inc., priority 2021, published 2024).
# Read-outs that look alike come from different tables or passages of the source.
# Experiments:
# primary human T-cells [1] = tested on: primary human T-cells
# primary human T-cells [2] = assay: Proliferation assay after 5 days (CellTiter-Glo, CD3 stimulation; PBS counter screen); assay type: cell-based; conditions: CD3 stimulation; for Emax proliferation (% activation) / Emax: 5 days, normalized to reference compound A1 as stimulator control = 100%, DMSO neutral control; for EC50: primary human T-cells, CellTiter-Glo after 5 days, EC50 of fitted sigmoidal curve, read-out: Tcell Proliferation CD3 EC50; for Emax: read-out: Emax proliferation (% activation)
# In short: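 Cpds added to medium-only plates; 5 d culture. Readout CellTiter-Glo 2.0 (equal vol), RT 45 min equilibration, 15 min rocking RT, luminescence. ATP signal taken as cell number.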
Structure (SMILES),EC50 (primary human T-cells [1]) [nM],Emax proliferation (% activation) (primary human T-cells [2]),EC50 (primary human T-cells [2]) [nM],"Emax (primary human T-cells [2]; Homo sapiens, T-cell, 120 h) [%]","EC50 (primary human T-cells [2]; Homo sapiens, T-cell, 120 h) [nM]"
"CN1CC(c2nc(-c3cc4c(cc3F)[S+]([O-])C[C@H](N)C(=O)N4Cc3ccc(Cl)cc3)no2)CC(F)(F)C1 (single isomer, unassigned; epimer b) [Example 343]",4830,97,2620,,
"CC(=O)N1CC(c2nnc(-c3cc4c(cc3F)S(=O)(=O)C[C@H](N)C(=O)N4Cc3ccc(Cl)cc3)o2)CC(F)(F)C1 (stereo partly drawn) [Example 162, (3R)-7-[5-(1-acetyl-5,5-difluoro-3-piperidyl)-1,3,4-oxadiazol-2-yl]-3-amino-5-[(4-chlorophenyl)methyl]-8-fluoro-1,1-dioxo-2,3-dihydro-1λ^6,5-benzothiazepin-4-one]",383,,,84,628
"CN1CCCC(C)(c2nnc(-c3cc4c(cc3F)S(=O)(=O)C[C@H](N)C(=O)N4Cc3ccc(Cl)cc3)o2)C1 (stereo partly drawn) [Example 145, (3R)-3-amino-5-[(4-chlorophenyl)methyl]-7-[5-(1,3-dimethyl-3-piperidyl)-1,3,4-oxadiazol-2-yl]-8-fluoro-1,1-dioxo-2,3-dihydro-1λ^6,5-benzothiazepin-4-one]",404,,,107,428
"CC(=O)N1CCC(c2nnc(-c3cc4c(cc3F)S(=O)(=O)C[C@H](N)C(=O)N4Cc3ccc(Cl)cc3)o2)CC1 [Example 168, (3R)-7-[5-(1-acetyl-4-piperidyl)-1,3,4-oxadiazol-2-yl]-3-amino-5-[(4-chlorophenyl)methyl]-8-fluoro-1,1-dioxo-2,3-dihydro-1λ^6,5-benzothiazepin-4-one]",1590,,,63,4950
"N[C@H]1CS(=O)(=O)c2cc(F)c(-c3nnc(N4CCOC5(CC5)C4)o3)cc2N(Cc2ccc(Cl)cc2)C1=O [Example 472, (3R)-3-amino-5-[(4-chlorophenyl)methyl]-8-fluoro-7-[5-(4-oxa-7-azaspiro[2.5]octan-7-yl)-1,3,4-oxadiazol-2-yl]-1,1-dioxo-2,3-dihydro-1λ^6,5-benzothiazepin-4-one]",109,,,115,116
"N[C@H]1CS(=O)(=O)c2ccc(-c3nnc(C4(N)CCCC4)o3)cc2N(Cc2ccc(OC(F)(F)F)cc2)C1=O [Example 414, (3R)-3-amino-7-[5-(1-aminocyclopentyl)-1,3,4-oxadiazol-2-yl]-1,1-dioxo-5-[[4-(trifluoromethoxy)phenyl]methyl]-2,3-dihydro-1λ^6,5-benzothiazepin-4-one]",4390,,,83,2590
"CC(C)(C#N)c1nc(-c2cc3c(cc2F)S(=O)(=O)C[C@H](N)C(=O)N3Cc2ccc(Cl)cc2)no1 [Example 321, 2-[3-[(3R)-3-amino-5-[(4-chlorophenyl)methyl]-8-fluoro-1,1,4-trioxo-2,3-dihydro-1λ^6,5-benzothiazepin-7-yl]-1,2,4-oxadiazol-5-yl]-2-methyl-propanenitrile]",597,,,130,250
"CC(C)Cc1nnc(-c2cc3c(cc2F)S(=O)(=O)C[C@H](N)C(=O)N3Cc2ccc(Cl)cc2)o1 [Example 101, (3R)-3-amino-5-[(4-chlorophenyl)methyl]-8-fluoro-7-(5-isobutyl-1,3,4-oxadiazol-2-yl)-1,1-dioxo-2,3-dihydro-1λ^6,5-benzothiazepin-4-one]",72.2,,,121,49.1
"CC(C)Oc1ccc(CN2C(=O)[C@@H](N)CS(=O)(=O)c3cc(F)c(-c4nnc(C(C)(C)C)o4)cc32)nc1 [Example 247, (3R)-3-amino-7-(5-tert-butyl-1,3,4-oxadiazol-2-yl)-8-fluoro-5-[(5-isopropoxy-2-pyridyl)methyl]-1,1-dioxo-2,3-dihydro-1λ^6,5-benzothiazepin-4-one]",320,,,79,761
"CS(=O)(=O)N1CC(c2nnc(-c3cc4c(cc3F)S(=O)(=O)C[C@H](N)C(=O)N4Cc3ccc(Cl)cc3)o2)C2(CC2)C1 (stereo partly drawn) [Example 176, (3R)-3-amino-5-[(4-chlorophenyl)methyl]-8-fluoro-7-[5-(5-methylsulfonyl-5-azaspiro[2.4]heptan-7-yl)-1,3,4-oxadiazol-2-yl]-1,1-dioxo-2,3-dihydro-1λ^6,5-benzothiazepin-4-one]",2510,,,70,4280
CC(C)(C)c1nnc(-c2cc3c(cc2F)S(=O)(=O)C[C@H](N)C(=O)N3Cc2ccc(Oc3ccccc3)cc2)o1 [Example 233],95,,,127,86.6
"CC(C)(C)c1nnc(-c2cc3c(cc2O)S(=O)(=O)C[C@H](N)C(=O)N3Cc2ccc(Cl)cc2)o1 [Example 273, (3R)-3-amino-7-(5-tert-butyl-1,3,4-oxadiazol-2-yl)-5-[(4-chlorophenyl)methyl]-8-hydroxy-1,1-dioxo-2,3-dihydro-1λ^6,5-benzothiazepin-4-one]",7210,,,61,3190
"CC1(c2nnc(-c3cc4c(cc3F)S(=O)(=O)C[C@H](N)C(=O)N4Cc3ccc(Cl)cc3)o2)CCNCC1 [Example 161, (3R)-3-amino-5-[(4-chlorophenyl)methyl]-8-fluoro-7-[5-(4-methyl-4-piperidyl)-1,3,4-oxadiazol-2-yl]-1,1-dioxo-2,3-dihydro-1λ^6,5-benzothiazepin-4-one]",1150,,,73,5480
"N[C@H]1CS(=O)(=O)c2cc(F)c(-c3nnc(N4CCC5(CC4)COC5)o3)cc2N(Cc2ccc(Cl)cc2)C1=O [Example 478, (3R)-3-amino-5-[(4-chlorophenyl)methyl]-8-fluoro-7-[5-(2-oxa-7-azaspiro[3.5]nonan-7-yl)-1,3,4-oxadiazol-2-yl]-1,1-dioxo-2,3-dihydro-1λ^6,5-benzothiazepin-4-one]",832,,,87,1320
"COC(=O)N1CCC(n2nnc(-c3cc4c(cc3F)S(=O)(=O)C[C@H](N)C(=O)N4Cc3ccc(Cl)cc3)n2)C1 (stereo partly drawn) [Example 15, methyl 3-[5-[(3R)-3-amino-5-[(4-chlorophenyl)methyl]-8-fluoro-1,1,4-trioxo-2,3-dihydro-1λ^6,5-benzothiazepin-7-yl]tetrazol-2-yl]pyrrolidine-1-carboxylate]",832,,,109,2440
"CN1CC(c2nc(-c3cc4c(cc3F)[S+]([O-])C[C@H](N)C(=O)N4Cc3ccc(Cl)cc3)no2)CC(F)(F)C1 (single isomer, unassigned; epimer a) [Example 342]",> 10000,80,4850,,
"N[C@H]1CS(=O)(=O)c2cc(F)c(-c3noc(C4(C(F)(F)F)CC4)n3)cc2N(Cc2ccc(Cl)cc2)C1=O [Example 318, (3R)-3-amino-5-[(4-chlorophenyl)methyl]-8-fluoro-1,1-dioxo-7-[5-[1-(trifluoromethyl)cyclopropyl]-1,2,4-oxadiazol-3-yl]-2,3-dihydro-1λ^6,5-benzothiazepin-4-one]",550,,,140,255
"CC(=O)N[C@H]1CS(=O)(=O)c2cc(F)c(-c3nnn(C4CNCC(F)(F)C4)n3)cc2N(Cc2ccc(Cl)cc2)C1=O (stereo partly drawn) [Example 26, N-[(3R)-5-[(4-chlorophenyl)methyl]-7-[2-(5,5-difluoro-3-piperidyl)tetrazol-5-yl]-8-fluoro-1,1,4-trioxo-2,3-dihydro-1λ^6,5-benzothiazepin-3-yl]acetamide]",> 10000,,,64,6390
"CC(=O)N1CCC(n2nnc(-c3cc4c(cc3F)S(=O)(=O)C[C@H](N)C(=O)N4Cc3ccc(Cl)cc3)n2)CC1 [Example 11, (3R)-7-[2-(1-acetyl-4-piperidyl)tetrazol-5-yl]-3-amino-5-[(4-chlorophenyl)methyl]-8-fluoro-1,1-dioxo-2,3-dihydro-1λ^6,5-benzothiazepin-4-one]",1300,,,107,1360
"CC1(c2nnc(-c3cc4c(cc3F)S(=O)(=O)C[C@H](N)C(=O)N4Cc3ccc(Cl)cc3)o2)CCOCC1 [Example 92, (3R)-3-amino-5-[(4-chlorophenyl)methyl]-8-fluoro-7-[5-(4-methyltetrahydropyran-4-yl)-1,3,4-oxadiazol-2-yl]-1,1-dioxo-2,3-dihydro-1λ^6,5-benzothiazepin-4-one]",145,,,141,196
"N[C@H]1CS(=O)(=O)c2cc(F)c(-c3nnc(-c4ccc(F)nc4)o3)cc2N(Cc2ccc(Cl)cc2)C1=O [Example 134, (3R)-3-amino-5-[(4-chlorophenyl)methyl]-8-fluoro-7-[5-(6-fluoro-3-pyridyl)-1,3,4-oxadiazol-2-yl]-1,1-dioxo-2,3-dihydro-1λ^6,5-benzothiazepin-4-one]",1360,,,34,> 10000
"COC(=O)N1CC(Nc2nnc(-c3cc4c(cc3F)S(=O)(=O)C[C@H](N)C(=O)N4Cc3ccc(Cl)cc3)o2)CC(F)(F)C1 (stereo partly drawn) [Example 490, methyl 3,3-difluoro-5-[[5-[(3R)-3-amino-5-[(4-chlorophenyl)methyl]-8-fluoro-1,1,4-trioxo-2,3-dihydro-1λ^6,5-benzothiazepin-7-yl]-1,3,4-oxadiazol-2-yl]amino]piperidine-1-carboxylate]",3760,,,72,6050
"CC(F)(F)CNc1nnc(-c2ccc3c(c2)N(Cc2ccc(Cl)cc2)C(=O)[C@@H](N)CS3(=O)=O)o1 [Example 393, (3R)-3-amino-5-[(4-chlorophenyl)methyl]-7-[5-(2,2-difluoropropylamino)-1,3,4-oxadiazol-2-yl]-1,1-dioxo-2,3-dihydro-1λ^6,5-benzothiazepin-4-one]",4010,,,51,2820
